These results are taken from ChEMBL document CHEMBL1926630, “Structure-activity relationships of chalcone analogs as potential inhibitors of ADP- and collagen-induced platelet aggregation” (2011).

The nature of test [1]: cells. To be noted: Oryctolagus cuniculus, New Zealand white, Platelet, read-out: INH.
Description: Antiplatelet activity against New Zealand white rabbit platelets assessed as inhibition of ADP-induced platelet aggregation at 9.6 ug/mL treated 2 mins before ADP challenge measured after 4 mins by turbidimetric analysis
A short description of test [2]: cells. The conditions noted are these: Oryctolagus cuniculus, New Zealand white, Platelet, read-out: INH. This is another data set of the same source.
Description: Antiplatelet activity against New Zealand white rabbit platelets assessed as inhibition of collagen-induced platelet aggregation at 9.6 ug/mL treated 2 mins before collagen challenge measured after 4 mins by turbidimetric analysis

Consider `COC(=O)[C@H](c1ccccc1Cl)N1CCc2sccc2C1` [CLOPIDOGREL], for which the inhibition at 9.6 µg/mL in the test “cells [1]” came out at 85.2%; in “cells [2]” it was 3.5%.
